For 22 molecules, IC50 results are on record in patent publication US10428104B2, “Substituted nucleoside derivatives useful as anticancer agents” (Pfizer Inc., priority 2015, dated 2019).

In the assay the target is PRMT5/MEP50 protein complex (Homo sapiens (Human), UniProt O14744). Kind of assay: PRMT5 biochemical assay (3H-SAM methylation of H4(1-21) peptide, filter plate scintillation counting). The settings on record: PRMT5 enzyme inhibition; 10 nM PRMT5/MEP50 complex, 200 nM H4(1-21) peptide, 1 uM SAM, 25 minute incubation at room temperature. On the procedure: Following dilution, 1 ul was added to an empty 96-well microtiter plate. PRMT5/MEP50 protein complex was combined with H4(1-21) peptide ([…]) in PRMT5 assay buffer (50 mM Tris pH 8.5, 50 mM NaCl, 5 mM MgCl2, 1 mM EDTA, 1 mM TCEP) and 44 ul was added to the microtiter plate containing compound. S-Adenosyl-L-methionine (SAM) was prepared by combining ^3H labelled SAM with unlabelled SAM in PRMT5 assay buffer such that the final SAM concentration was 10 uM and the specific activity was 0.2 uCi/ul. The reaction was initiated by adding 5 ul of SAM stock to the microtiter plate. The final reaction conditions were 10 nM PRMT5/MEP50 complex, 200 nM peptide and 1 uM SAM. Following a 25 minute incubation at room temperature, the reaction was stopped with the addition of 100 uL of 20% TCA. The 3H-peptide product was captured using a 96-well filter plate (MSIPN4B, Millipore) and washed 5 times with PBS buffer. Scintillation fluid (100 ul) was added to the dried filter plate and counted in a liquid scintillation counter. IC50 values were determined by fitting the data to the standard 4-parameter dose response equation using Pfizer proprietary software.
PRMT5/MEP50 protein complex, sequence (O14744 other isoform, or with tags, fused parts or gaps): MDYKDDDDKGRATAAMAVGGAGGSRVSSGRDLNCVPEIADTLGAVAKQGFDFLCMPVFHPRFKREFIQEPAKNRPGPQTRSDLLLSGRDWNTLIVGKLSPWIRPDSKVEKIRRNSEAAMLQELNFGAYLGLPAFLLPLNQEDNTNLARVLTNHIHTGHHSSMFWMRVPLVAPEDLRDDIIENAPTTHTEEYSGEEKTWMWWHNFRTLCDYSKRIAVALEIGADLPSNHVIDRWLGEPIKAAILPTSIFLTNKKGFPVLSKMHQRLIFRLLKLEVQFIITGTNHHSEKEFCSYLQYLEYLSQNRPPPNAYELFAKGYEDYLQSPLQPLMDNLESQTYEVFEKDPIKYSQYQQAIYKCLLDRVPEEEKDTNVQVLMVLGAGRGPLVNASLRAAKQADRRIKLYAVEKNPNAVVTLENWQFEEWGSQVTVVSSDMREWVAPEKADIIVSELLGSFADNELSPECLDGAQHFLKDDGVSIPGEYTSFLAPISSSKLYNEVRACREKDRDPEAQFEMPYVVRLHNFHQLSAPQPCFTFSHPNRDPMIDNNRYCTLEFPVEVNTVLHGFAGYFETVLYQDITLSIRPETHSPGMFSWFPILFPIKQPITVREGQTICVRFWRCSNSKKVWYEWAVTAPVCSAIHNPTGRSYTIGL
PRMT5/MEP50 protein complex, sequence (Q9BQA1 whole entry partner): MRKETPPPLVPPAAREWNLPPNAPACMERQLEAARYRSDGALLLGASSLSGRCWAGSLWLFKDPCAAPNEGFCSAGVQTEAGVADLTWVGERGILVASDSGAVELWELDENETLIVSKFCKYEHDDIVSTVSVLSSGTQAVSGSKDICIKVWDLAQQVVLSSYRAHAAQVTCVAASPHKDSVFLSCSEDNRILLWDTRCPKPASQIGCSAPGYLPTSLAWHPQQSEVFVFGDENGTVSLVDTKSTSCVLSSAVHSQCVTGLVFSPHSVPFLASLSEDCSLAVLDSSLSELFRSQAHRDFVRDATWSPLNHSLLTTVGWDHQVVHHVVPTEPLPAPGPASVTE
In the final construct PRMT5 ORF was under control of polyhedrin promoter (polH) while MEP50 ORF was under control of p10 promoter.
Viruses were generated using standard Bac-to-Bac viral generation protocols (Life Technologies) and amplified to high-titer passage two (P2) stocks. Protein over expression was conducted in exponentially growing Sf21 cells infected at 2×106 with P2 viral stock at MOI=1 of PRMT5-Mep50 dual construct virus and Mep50 construct virus at 1:1 ratio. The co-expression protocol was used to supplement additional Mep50 for FlagPRMT5-Mep50 heterodimer formation. Cells were harvested at 72 h post infection by centrifugation and frozen pellet was stored at −80° C.
FlagPRMT5-Mep50 complex was purified from cell lysate using Flag affinity chromatography. Cell were lyzed in 50 mM Tris 7.5, 200 mM NaCl, 10% glycerol, 0.25 mM TCEP supplemented with EDTA-free protease inhibitor cocktail (Roche). 1.5 ml of lysis buffer was added per 1 g of frozen pellet. The clarified lysate was obtained by centrifugation of cell lysate at 10,000 g for 1 h at 4 C. 5 ml of Anti-FLAG M2 Agarose (Sigma) […] was added to the clarified lysate to isolate FlagPRMT5-Mep50. Following batch binding for 3 h at 4 C, Flag resin bound to FlagPRMT5-Mep50 washed with 20 column volumes (CV) of 50 mM Tris 7.5, 200 mM NaCl, 10% glycerol, 0.25 mM TCEP followed by elution of FlagPRMT5-Mep50 complex using 3 CV of 50 mM Tris 7.5, 200 mM NaCl, 10% glycerol, 0.25 mM TCEP supplemented with 200 ug/ml of FLAG Peptide ([…]). […] Peak fractions containing FlagPRMT5-Mep50 complex were concentrated to 1.6 mg/ml, flash frozen in small aliquots using liquid nitrogen and stored at −80° C.
For `CC(C)C[C@@H](O)[C@H]1O[C@@H](n2cnc3c(N)ncnc32)[C@H](O)[C@@H]1O` [Example 7, (2R,3R,4S,5R)-2-(6-amino-9H-purin-9-yl)-5-((R)-1-hydroxy-3-methylbutyl)tetrahydrofuran-3,4-diol], it took 1830 nM to reach half-maximal inhibition (IC50).
For `Cc1ncnc2c1ccn2[C@@H]1O[C@H]([C@@H](O)C(F)(F)F)[C@@H](O)[C@H]1O` [Example 57, (2R,3R,4S,5S)-2-(4-methyl-7H-pyrrolo[2,3-d]pyrimidin-7-yl)-5-((R)-2,2,2-trifluoro-1-hydroxyethyl)tetrahydrofuran-3,4-diol] the value was 6310 nM.
For `Cc1ncnc2c1ccn2[C@@H]1O[C@H]([C@@H](F)c2ccc(F)c(F)c2)[C@@H](O)[C@H]1O` [Example 93, (2S,3S,4R,5R)-2-((S)-(3,4-difluorophenyl)fluoromethyl)-5-(4-methyl-7H-pyrrolo[2,3-d]pyrimidin-7-yl)tetrahydrofuran-3,4-diol], half-maximal inhibition (IC50) required 299 nM. Against the preceding molecule, the IC50 is about 21-fold lower.
`Cc1ncnc2c1ccn2[C@@H]1O[C@H](Cn2cccn2)[C@@H](O)[C@H]1O` [Example 58, (2R,3S,4R,5R)-2-((1H-pyrazol-1-yl)methyl)-5-(4-methyl-7H-pyrrolo[2,3-d]pyrimidin-7-yl)tetrahydrofuran-3,4-diol] had an IC50 of 1980 nM. Against the preceding molecule, the IC50 is about 6.6-fold higher.
In the case of `Cc1ncnc2c1ccn2[C@@H]1O[C@H]([C@H](O)c2ccc3occ(C(F)F)c3c2)[C@@H](O)[C@H]1O` [Example 21, (2R,3S,4R,5R)-2-((R)-(3-(difluoromethyl)benzofuran-5-yl)(hydroxy)methyl)-5-(4-methyl-7H-pyrrolo[2,3-d]pyrimidin-7-yl)tetrahydrofuran-3,4-diol] it was 33 nM.
As for `Cc1nc(N)nc2c1ccn2[C@@H]1O[C@@H](c2ccccc2)[C@@H](O)[C@H]1O` [Example 68, (2R,3R,4S,5S)-2-(2-amino-4-methyl-7H-pyrrolo[2,3-d]pyrimidin-7-yl)-5-phenyltetrahydrofuran-3,4-diol], inhibition was half-maximal at 5500 nM (IC50).
`Cc1nc(N)nc2c1ccn2[C@@H]1O[C@H]([C@@H](O)c2ccc(F)cc2)[C@@H](O)[C@H]1O` [Example 65, (2R,3R,4S,5R)-2-(2-amino-4-methyl-7H-pyrrolo[2,3-d]pyrimidin-7-yl)-5-((S)-(4-fluorophenyl)(hydroxy)methyl)tetrahydrofuran-3,4-diol]: the IC50 came to 488 nM.
Turning to `Cc1ncnc2c1ccn2[C@@H]1O[C@H]([C@H](O)c2cccc(=O)[nH]2)[C@@H](O)[C@H]1O` [Example 113, 6-((R)-((2R,3S,4R,5R)-3,4-dihydroxy-5-(4-methyl-7H-pyrrolo[2,3-d]pyrimidin-7-yl)tetrahydrofuran-2-yl)(hydroxy)methyl)pyridin-2(1H)-one], the IC50 is 87 nM.
For `Cc1ncnc2c1ccn2[C@@H]1O[C@H]([C@@H](O)C2CCCC2)[C@@H](O)[C@H]1O` [Example 43, (2R,3S,4R,5R)-2-((S)-cyclopentyl(hydroxy)methyl)-5-(4-methyl-7H-pyrrolo[2,3-d]pyrimidin-7-yl)tetrahydrofuran-3,4-diol] the value was 74000 nM; for `Cc1ncnc2c1ccn2[C@@H]1O[C@H]([C@@H](N)c2ccc(F)c(F)c2)[C@@H](O)[C@H]1O` [Example 95, (2R,3S,4R,5R)-2-((S)-amino(3,4-difluorophenyl)methyl)-5-(4-methyl-7H-pyrrolo[2,3-d]pyrimidin-7-yl)tetrahydrofuran-3,4-diol], 150 nM; for `Cc1ncnc2c1ccn2[C@@H]1O[C@@H](c2ccccc2)[C@@H](O)[C@H]1O` [Example 66, (2R,3R,4S,5S)-2-(4-methyl-7H-pyrrolo[2,3-d]pyrimidin-7-yl)-5-phenyltetrahydrofuran-3,4-diol], 1990 nM.
In the case of `CC(C)C[C@H](O)[C@H]1O[C@@H](n2cnc3c(N)ncnc32)[C@H](O)[C@@H]1O` [Example 8, (2R,3R,4S,5R)-2-(6-amino-9H-purin-9-yl)-5-((S)-1-hydroxy-3-methylbutyl)tetrahydrofuran-3,4-diol], the midpoint of inhibition, the IC50, lay at 17900 nM.
In turn, `Nc1ncnc2c1c(F)cn2[C@@H]1O[C@H](Cc2ccc(F)cc2)[C@@H](O)[C@H]1O` [Example 101, (2R,3R,4S,5R)-2-(4-amino-5-fluoro-7H-pyrrolo[2,3-d]pyrimidin-7-yl)-5-(4-fluorobenzyl)tetrahydrofuran-3,4-diol] gave an IC50 of 30 nM.
As to `Cc1ncnc2c1ccn2[C@@H]1O[C@H]([C@H](O)c2cccc(S(C)(=O)=O)c2)[C@@H](O)[C@H]1O` [Example 19, (2R,3S,4R,5R)-2-((R)-hydroxy(3-(methylsulfonyl)phenyl)methyl)-5-(4-methyl-7H-pyrrolo[2,3-d]pyrimidin-7-yl)tetrahydrofuran-3,4-diol], 65 nM corresponded to half-maximal inhibition (IC50).
In the case of `N[C@H](c1ccc(F)c(F)c1)[C@H]1O[C@@H](n2ccc3cncnc32)[C@H](O)[C@@H]1O` [Example 118, (2R,3S,4R,5R)-2-((R)-amino(3,4-difluorophenyl)methyl)-5-(7H-pyrrolo[2,3-d]pyrimidin-7-yl)tetrahydrofuran-3,4-diol] it was 35 nM.
In turn, `Cc1ncnc2c1ccn2[C@@H]1O[C@@H]([C@@H](O)c2ccccc2)[C@@H](O)[C@H]1O` [Example 73, (2S,3S,4R,5R)-2-((S)-hydroxy(phenyl)methyl)-5-(4-methyl-7H-pyrrolo[2,3-d]pyrimidin-7-yl)tetrahydrofuran-3,4-diol] displayed an IC50 of 23300 nM. This IC50 lies about 670-fold higher than the previous one.
`Cc1ncnc2c1ccn2[C@@H]1O[C@H]([C@H](O)Cc2ccccc2)[C@@H](O)[C@H]1O` [Example 28, (2R,3S,4R,5R)-2-((R)-1-hydroxy-2-phenylethyl)-5-(4-methyl-7H-pyrrolo[2,3-d]pyrimidin-7-yl)tetrahydrofuran-3,4-diol] yielded an IC50 of 11200 nM.
Consider `Cc1ncnc2c1ccn2[C@@H]1O[C@H](C(=O)c2ccc(F)c(F)c2)[C@@H](O)[C@H]1O` [Example 91, (3,4-difluorophenyl)((2S,3S,4R,5R)-3,4-dihydroxy-5-(4-methyl-7H-pyrrolo[2,3-d]pyrimidin-7-yl)tetrahydrofuran-2-yl)methanone], for which the IC50 came to 355 nM.
`Cc1ncnc2c1ccn2[C@@H]1O[C@H]([C@H](O)c2ccc3ncn(C(F)F)c3c2)[C@@H](O)[C@H]1O` [Example 22, (2R,3S,4R,5R)-2-((R)-(1-(difluoromethyl)-1H-benzo[d]imidazol-6-yl)(hydroxy)methyl)-5-(4-methyl-7H-pyrrolo[2,3-d]pyrimidin-7-yl)tetrahydrofuran-3,4-diol]: the IC50 is 108 nM.
Consider `Cc1ncnc2c1ccn2[C@@H]1O[C@H]([C@@H](O)C2CC2)[C@@H](O)[C@H]1O` [Example 47, (2R,3S,4R,5R)-2-((S)-cyclopropyl(hydroxy)methyl)-5-(4-methyl-7H-pyrrolo[2,3-d]pyrimidin-7-yl)tetrahydrofuran-3,4-diol], for which inhibition was half-maximal at 15400 nM (IC50).
In turn, `Nc1ncnc2c([C@@H]3O[C@H]([C@H](O)c4ccc(F)cc4)[C@@H](O)[C@H]3O)coc12` [Example 80, (2S,3R,4S,5R)-2-(4-aminofuro[3,2-d]pyrimidin-7-yl)-5-((R)-(4-fluorophenyl)(hydroxy)methyl)tetrahydrofuran-3,4-diol] returned an IC50 of 32 nM.
For `Cc1ncnc2c1ccn2[C@@H]1O[C@H]([C@H](O)c2ccc3c(c2)ncn3C(F)F)[C@@H](O)[C@H]1O` [Example 23, (2R,3S,4R,5R)-2-((R)-(1-(difluoromethyl)-1H-benzo[d]imidazol-5-yl)(hydroxy)methyl)-5-(4-methyl-7H-pyrrolo[2,3-d]pyrimidin-7-yl)tetrahydrofuran-3,4-diol], the IC50 is 793 nM.
